“Also recorded” adds a separate entry of the source.
Experiments:
[1] = test system: primary cultured rat hippocampal neurons; assay: Cell death of cultured neurons under kinase inhibitor treatment; format: cell-based; settings: Sprague-Dawley, 24 h
Procedure: Roscovitine and CHIR99021 were purchased from Sigma-Aldrich (St. Louis, Mo.) and were diluted in DMSO to four 1000× concentration aliquots for ultimate concentrations in neurobasal medium of […]. Primary cultured rat hippocampal neurons transfected with dsRed and eGFP-P301L-tau were treated with one of four 1000× aliquots or DMSO vehicle on DIV 20-22. Treated cells were incubated for 24 hours prior to imaging on DIV 21-23. Cell death was visually assessed under differential interference contrast (DIC) for decreased cell density, lost soma adhesion, gross qualitative neurite retraction. If evidence of cell death was observed under DIC, cells were fixed in 4% sucrose and 4% paraformaldehyde in PBS and stained with 300 nM DAPI in PBS. DAPI stained cells were analyzed under fluorescent microscopy for nuclear pyknosis and karyorrhexis; dsRed expressing cells were analyzed for spine loss. If no cell death was evident under DIC, live fluorescent images were acquired and analyzed as above.

[2] = test system: cultured G2-3 (A53T αS) mouse hippocampal neurons expressing eGFP-WT tau; assay: A53T αS-dependent mislocalization of tau to dendritic spines, GSK3β inhibition; format: cell-based; settings: 3 μM, applied at 16 DIV, imaged at 21 DIV
[3] = test system: low density hippocampal neurons from G2-3 mice; assay: GluA1 surface expression in dendritic spines of G2-3 neurons; format: cell-based, mouse
Text: FIG. 21A. Photomicrographs of neurons from G2-3 mice and their TgNg littermates without (top two panels) and with treatment of CHIR-99021 (bottom two panels). As previously described (Liao et al. 1999 Nature Neuroscience 2(1): 37-43), live neurons were stained for N-GluA1 antibodies (green), fixed, permeablized, and stained for PSD-95 (red). Arrows indicate tightly clustered surface N-GluA1 colocalized with PSD-95, whereas weak, non-specific N-GluR1 immunoreactivity appeared along the dendritic shafts as diffuse staining rather than distinct clusters in G2-3 neurons (arrow heads). The diffuse staining is likely due to the presence of extrasynaptic AMPA receptors (Newpher and Ehlers 2008 Neuron 58: 472-97). […] Scale bar: […]. FIG. 21B. GluA1 surface fluorescence in PSD-95 immunoreactive spines was normalized to dendritic fluorescence. […] For all n=8; data are expressed as mean±s.e.m. […]
Cultured neurons were fixed and permeabilized successively with 4% paraformaldehyde, 100% methanol, and 0.2% Triton X-100 (Lin et al. 2009 Neuropsychopharmacology 34(9):2097-111). […] In FIG. 4A-FIG. 4B, the number of synaptophysin clusters and their colocalization with boutons of neurons expressing eGFP or eGFP-labeled αS were automatically counted using ImageJ software (available on the world wide web at imagej.nih.gov/ij/). […] DAPI stained nuclei were manually counted from wide-field photomicrographs. […]

[4] = test system: rat hippocampal neurons expressing P301L mutant eGFP-tau; assay: P301L mutant tau mislocalization to dendritic spines, kinase inhibitor treatment; format: cell-based
Text: FIG. 5A. […] FIG. 5B. […] FIG. 5C. […] FIG. 5D. […] FIG. 5E.

[5] = test system: cultured rat hippocampal neurons expressing A53T αS; assay: AMPA receptor mEPSCs in neurons transfected with A53T αS; format: cell-based; settings: GSK3β inhibition with CHIR
[6] = test system: neurons expressing GFP-tagged P301L-tau; assay: Missorting of tau to dendritic spines in neurons expressing P301L mutant tau, peptide treatment; format: cell-based, rat; settings: for proportion of dendritic spines that contain tau (tau mis-sorting caused by P301L mutation): 21 DIV neurons, GFP-tagged P301L-tau, peptide 1 μM for 3 days
Procedure: FIG. 10A-FIG. 10B show missorting of tau to dendritic spines caused by P301L mutation is blocked by Peptide 1 and Peptide 2 but not Peptide 3. FIG. 10A 21 days in vitro (DIV) neurons expressing DsRed (left panels) and GFP-tagged P301L-tau (middle panels) were treated with AP peptide (Peptide 2; 1 μM) for 3 days (top panels: untreated; bottom panels: treated).
Transfected cells were continually bathed in neurobasal media and were passively perfused with medical-grade 95% O2-5% CO2. Micrographs were taken on a Nikon epifluorescent inverted microscope with 60× oil lens with a computerized focus motor at DIV 21-23. All digital images were processed using METAMORPH Imaging System (Universal Imaging Corporation, Molecular Devices, San Jose, Calif.). Images were taken as 15 plane stacks at 0.5 micron increments, processed by deconvolution to the nearest planes, and averaged against other stacked images. A dendritic spine was defined as having an expanded head diameter, greater than 50% larger in diameter than the neck. The number of spines per neuron were counted and normalized to a […] length of dendritic shaft. […]

[7] = test system: rat hippocampal neurons expressing GFP-WT-tau; assay: Tau missorting to dendritic spines in mechanically injured (stretched) neurons, TBI model; format: cell-based; settings: 10 stretches, 2% strain; AP peptide 1 μM
Procedure: FIG. 12A. Representative live images of cultured rat hippocampal neurons that had been co-transfected with plasmids of DsRed (left lane; a red fluorescence protein to label dendritic spines) and green fluorescence protein (GFP)-tagged wild-type tau (GFP-WT-tau; middle lane) with overlay images on the right lane 2 days after the delivery of a mechanical protocol. The neurons were cultured on a plastic membrane and were stretched by a computer-controlled mechanical device, as described in Example 2 (10 stretches; 2% mechanical strain; 1 second interval between stretches) in 21 days in vitro (DIV). Arrows denote dendritic spines that contain tau and triangles denote dendritic spines devoid of tau. FIG. 12B. […] FIG. 12C. […] ANOVA was used in FIG. 12B and FIG. 12C; *** indicates p<0.001.
In a tauopathy model for traumatic brain injuries (TBI) based on the model of Hemphill et al. 2011 PLoS One. 6(7):e2289), mechanical injuries to neurons induce tau missorting to dendritic spines (FIG. 12). The methods of Hemphill et al. were modified such that plasmids encoding GFP-tagged tau were introduced into neurons, allowing detection of tau abnormalities as well as tau-mediated synaptic deficits. Briefly, neurons were plated onto medical grade silicone elastomer membranes (0.010 inch NRV, Specialty Manufacturing, Inc., Saginaw, Mich.) and glued inside a reducing well. […]

[8] = test system: rat hippocampal neurons expressing GFP-tagged wild-type human tau; assay: Mislocalization of tau to dendritic spines caused by Aβ oligomers; format: cell-based; settings: Aβ oligomers 0.1 μM with AP peptide 1 μM, 3 days
Procedure: FIG. 11A Cultured 21 days in vitro (DIV) rat hippocampal neurons expressing DsRed (left panels) and GFP-tagged wild-type human tau (middle panels) were untreated (top panels), treated with Aβ oligomers alone (0.1 μM) (middle panels), or treated with Aβ oligomers (0.1 μM) with AP peptide (1 μM) (bottom panels) for 3 days.

[9] = 500 nM chir99021 and 500 nM roscovitine in combination
[10] = either drug alone, concentrations up to 5 μM

Cc1c[nH]c(-c2cnc(NCCNc3ccc(C#N)cn3)nc2-c2ccc(Cl)cc2Cl)n1 [CHIR99021]
concentration that killed the neurons [1]: above 5 μM | drug concentration at which overt cell death was observed [1]: exceeded 5 M | increase in dendritic spines containing mislocalized eGFP-tau in G2-3 neurons [2]: blocked | surface N-GluA1 synaptic localization (colocalization with PSD-95) ([3]; listed as CHIR): strong colocalization of PSD-95 and N-GluA1 clusters is restored | surface N-GluA1 synaptic localization (colocalization with PSD-95) ([3]; listed as CHIR-99021): restored surface N-GluA1 synaptic localization | percentage of eGFP-containing spines [4, 9]: reduced the percentage of eGFP-containing spines to that of wild type eGFP-tau | percentage of eGFP-containing spines [4, 10]: neither drug alone, at concentrations up to 5 μM, lowered the percentage of eGFP-containing spines to control levels | postsynaptic deficits (mEPSC amplitude) caused by A53T αS transfection [5]: completely reverse

CC[C@H](CO)Nc1nc(NCc2ccccc2)c2ncn(C(C)C)c2n1 [roscovitine]
percentage of eGFP-containing spines [4, 9]: reduced the percentage of eGFP-containing spines to that of wild type eGFP-tau | percentage of eGFP-containing spines [4, 10]: neither drug alone, at concentrations up to 5 μM, lowered the percentage of eGFP-containing spines to control levels

H2N-GRKKRRQRRRPQDHGAEIVYKEPVVSGDTEPRHLSNVS ST-OH (H-GRKKRRQRRRPQDHGAEIVYKEPVVSGDTEPRHLSNVSST-OH) [Peptide 3]
proportion of dendritic spines that contain tau (tau mis-sorting caused by P301L mutation) [6]: did not block | proportion of dendritic spines that contain tau (tau mis-sorting caused by P301L mutation) ([6]; listed as EP Peptide): No decrease | proportion of dendritic spines that contain tau (tau mis-sorting caused by P301L mutation) ([6]; listed as EP peptide): did not block tau mis-sorting

H2N-GRKKRRQRRRPQDHGAEIVYKAPVVSGDTAPRHLSNVS ST-OH (H-GRKKRRQRRRPQDHGAEIVYKAPVVSGDTAPRHLSNVSST-OH) [Peptide 2]
proportion of dendritic spines that contain tau (tau mis-sorting caused by P301L mutation) [6]: block mislocalization of tau | proportion of dendritic spines that contain tau (tau mis-sorting caused by P301L mutation) ([6]; listed as AP peptide): blocked tau mis-sorting; also recorded: significantly decreased | strength of effect on tau mis-sorting compared with WT peptide ([6]; neurons expressing P301L mutant tau): stronger effect | proportion of dendritic spines containing tau after mechanical stretches [7]: blocked tau missorting to dendritic spines | proportion of dendritic spines that contain tau, increase caused by Aβ oligomers [8]: blocked | proportion of dendritic spines that contain tau, increase caused by Aβ oligomers ([8]; listed as AP peptide): block tau mislocalization; also recorded: can block tau missorting to dendritic spines

— patent US20190263867A1, “TAU PEPTIDES, METHODS OF MAKING, AND METHODS OF USING” (priority 2018, published 2019)
